According to paper PMC9019904, “AD Informer Set: Chemical tools to facilitate Alzheimer's disease drug discovery” (Alzheimer's & Dementia : Translational Research & Clinical …, 2022):
≈ marks a conversion by molar mass, not a printed value. Like-named read-outs stand apart in the source and are kept apart here.

How the values were obtained:
[1] = tested on: BV2 (mouse microglia) cell line; assay: pHrodo-myelin phagocytosis/cell viability high content imaging assay: phagocytosis signal; assay type: cell-based
Summary of the method: (§1)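 Imaging at high content captured pHrodo-myelin uptake about 22 hours after its addition, alongside a viability read-out from the same cells. Three measurements were derived, with intensity increase marking early apoptosis and decrease marking later apoptosis.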

[2] = tested on: protein product expressed by the gene target; conditions: cited from earlier work
cellular system = conditions: cited from earlier work
[3] = Kinetic solubility in aqueous buffer pH 7.4 by total chemiluminescent nitrogen determination (Analiza); conditions: aqueous buffer, pH 7.4, aqueous buffer, kinetic from dmso stock
[4] = tested on: BV2 (mouse microglia) cell line; assay: pHrodo-myelin phagocytosis/cell viability high content imaging assay: viability (cell count, nuclear area, nuclear intensity)
Summary of the method: (§2)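 Viability was read as total cell count per well by high-content imaging, with mean average nuclear intensity per cell profiling apoptosis (rise early, fall late). Compounds were given at 10 μM for 48 h, pHrodo-myelin being added for the final 20 h. Values are means of two points as % untreated control.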

[5] = tested on: HMC3 (human microglia) cell line; assay: pHrodo-myelin phagocytosis/cell viability high content imaging assay: phagocytosis signal; assay type: cell-based
Summary of the method: as §1

physchem = conditions: pH 7.4, aqueous buffer, kinetic from dmso stock
[6] = tested on: HMC3 (human microglia) cell line; assay: pHrodo-myelin phagocytosis/cell viability high content imaging assay: viability (cell count, nuclear area, nuclear intensity)
Summary of the method: as §2

[7] = gene target CYP19A1, ref Probe Miner
[8] = BV2 cells, 10 uM compound, 48 hours treatment
[9] = HMC3 cells, 10 uM compound, 48 hours treatment

SMILES: CC(=O)N1CCN(c2ccc(OCC3COC(Cn4ccnc4)(c4ccc(Cl)cc4Cl)O3)cc2)CC1 (centres unmarked) [Ketoconazole]
- Stimulation of mouse microglial phagocytosis at 10 μM (>150% control) ([1]; BV2, 10 μM): Y (The compound was found to stimulate phagocytosis (response threshold: >150% control) when murine immortalized microglial cells were dosed at 10 μM (Y: yes))
- Reported on-target biochemical potency [2]: 64000 nM
- Reported as cell active (<10 μM) (cellular system): Y (key: Published data supports that the compound is active in a cellular system when dosed at 10 μM (Y/N); Published data supports that the compound is active in a cellular system when dosed at 10 μM (Y/N))
- solubility kinetic [3]: 120 µM (≈ 63.6 µg/mL)

SMILES: Cl.NCCOCCOCCNC(=O)Cc1ccc(Nc2nc(NCc3ccc(F)cc3)nc(NCC3CCCCC3)n2)cc1 [ENOblock (AP-III-a4)]
- Mouse microglial cytotoxicity at 10 μM (<70% control) ([4]; BV2, 10 μM): Y (The compound was found to be cytotoxic (cell count threshold: <70% control) when murine immortalized microglial cells were dosed at 10 μM (Y: yes))
- Stimulation of mouse microglial phagocytosis at 10 μM (>150% control) ([1]; BV2, 10 μM): Y (The compound was found to stimulate phagocytosis (response threshold: >150% control) when murine immortalized microglial cells were dosed at 10 μM (Y: yes))
- Inhibition of human microglial phagocytosis at 10 μM (<70% control) ([5]; HMC3, 10 μM): Y (The compound was found to inhibit phagocytosis (response threshold: <70% control) when human immortalized microglial cells were dosed at 10 μM (Y: yes))
- Reported on-target biochemical potency ([2]; gene target ENO1, ref Probe Miner, PubMed 30679508, 28272459): 576 nM
- solubility kinetic (physchem): 76.8 µM

SMILES: CN(C)CCCN1c2ccccc2Sc2ccc(Cl)cc21 [Chlorpromazine]
- Reported on-target biochemical potency [2]: >1000 nM
- Reported as cell active (<10 μM) (cellular system): N
- solubility kinetic (physchem): 102 µM (≈ 32.6 µg/mL)

SMILES: CC(C)CCOc1ccc(N)cc1 [CP-24879]
- Reported on-target biochemical potency ([2]; gene target FADS1 and FADS2, ref PubMed 11939906, 27832159, 9605428): 3400 nM
- solubility kinetic (physchem): 56.8 µM (≈ 10.2 µg/mL)

SMILES: CCc1cnn2c(NCc3ccc[n+]([O-])c3)cc(N3CCCC[C@H]3CCO)nc12 [Dinaciclib]
- Mouse microglial cytotoxicity at 10 μM (<70% control) ([4]; BV2, 10 μM): Y (The compound was found to be cytotoxic (cell count threshold: <70% control) when murine immortalized microglial cells were dosed at 10 μM (Y: yes))
- Human microglial cytotoxicity at 10 μM (<70% control) ([6]; HMC3, 10 μM): Y (The compound was found to be cytotoxic (cell count threshold: <70% control) when human immortalized microglial cells were dosed at 10 μM (Y: yes))
- Inhibition of mouse microglial phagocytosis at 10 μM (<70% control) ([1]; BV2, 10 μM): Y (The compound was found to inhibit phagocytosis (response threshold: <70% control) when murine immortalized microglial cells were dosed at 10 μM (Y: yes))
- Stimulation of human microglial phagocytosis at 10 μM (>150% control) ([5]; HMC3, 10 μM): Y (The compound was found to stimulate phagocytosis (response threshold: >150% control) when human immortalized microglial cells were dosed at 10 μM (Y: yes))
- Reported on-target biochemical potency ([2]; gene target CDK9, ref PubMed 20663931, 25289887, 21768779): 4 nM
- solubility kinetic (physchem): 143 µM (≈ 56.8 µg/mL)

SMILES: COCC(=O)O[C@]1(CCN(C)CCCc2nc3ccccc3[nH]2)CCc2cc(F)ccc2[C@@H]1C(C)C [Mibefradil]
- Mouse microglial cytotoxicity at 10 μM (<70% control) ([4]; BV2 cells, 10 μM, cell count <70% control): Y (The compound was found to be cytotoxic (cell count threshold: <70% control) when murine immortalized microglial cells were dosed at 10 μM (Y: yes))
- Inhibition of mouse microglial phagocytosis at 10 μM (<70% control) ([1]; BV2 cells, 10 μM): Y (The compound was found to inhibit phagocytosis (response threshold: <70% control) when murine immortalized microglial cells were dosed at 10 μM (Y: yes))
- Inhibition of human microglial phagocytosis at 10 μM (<70% control) ([5]; HMC3 cells, 10 μM): Y (The compound was found to inhibit phagocytosis (response threshold: <70% control) when human immortalized microglial cells were dosed at 10 μM (Y: yes))
- Reported on-target biochemical potency [2]: 980 nM
- Reported as cell active (<10 μM) (cellular system): Y (key: Published data supports that the compound is active in a cellular system when dosed at 10 μM (Y/N); Published data supports that the compound is active in a cellular system when dosed at 10 μM (Y/N))
- solubility kinetic [3]: 128 µM (≈ 63.4 µg/mL)

SMILES: Nc1nc(Nc2ccc3c(c2)CC[C@@H](N2CCCC2)CC3)nn1-c1cc2c(nn1)-c1ccccc1CCC2 [Bemcentinib (BGB324)]
- Mouse microglial cytotoxicity at 10 μM (<70% control) ([4]; BV2, 10 μM): Y (The compound was found to be cytotoxic (cell count threshold: <70% control) when murine immortalized microglial cells were dosed at 10 μM (Y: yes))
- Human microglial cytotoxicity at 10 μM (<70% control) ([6]; HMC3, 10 μM): Y (The compound was found to be cytotoxic (cell count threshold: <70% control) when human immortalized microglial cells were dosed at 10 μM (Y: yes))
- Inhibition of mouse microglial phagocytosis at 10 μM (<70% control) ([1]; BV2, 10 μM): Y (The compound was found to inhibit phagocytosis (response threshold: <70% control) when murine immortalized microglial cells were dosed at 10 μM (Y: yes))
- Inhibition of human microglial phagocytosis at 10 μM (<70% control) ([5]; HMC3, 10 μM): Y (The compound was found to inhibit phagocytosis (response threshold: <70% control) when human immortalized microglial cells were dosed at 10 μM (Y: yes))
- Reported on-target biochemical potency [2]: 14 nM
- solubility kinetic [3]: 82.9 µM (≈ 42 µg/mL)

SMILES: CN1CCN(CCCN2c3ccccc3Sc3ccc(C(F)(F)F)cc32)CC1 [Trifluoperazine]
- Mouse microglial cytotoxicity at 10 μM (<70% control) ([4]; 10 μM, BV2): Y (The compound was found to be cytotoxic (cell count threshold: <70% control) when murine immortalized microglial cells were dosed at 10 μM (Y: yes))
- Inhibition of human microglial phagocytosis at 10 μM (<70% control) ([5]; 10 μM, HMC3): Y (The compound was found to inhibit phagocytosis (response threshold: <70% control) when human immortalized microglial cells were dosed at 10 μM (Y: yes))
- Reported on-target biochemical potency [2]: 5200 nM
- Reported as cell active (<10 μM) (cellular system): Y (key: Published data supports that the compound is active in a cellular system when dosed at 10 μM (Y/N); Published data supports that the compound is active in a cellular system when dosed at 10 μM (Y/N))

SMILES: COc1ccc2[nH]c([S+]([O-])Cc3ncc(C)c(OC)c3C)nc2n1 (centres unmarked) [Tenatoprazole]
- Reported on-target biochemical potency ([2]; gene target DHTKD1, ref PubMed 32633484): 2700 nM
- solubility kinetic (physchem): 131 µM (≈ 45.4 µg/mL)

SMILES: CNC(=O)[C@H](Cc1c[nH]c2ccccc12)NC(=O)[C@@H](CC(=O)NO)CC(C)C [Ilomastat]
- Reported on-target biochemical potency ([2]; target gene MMP17, ref Probe Miner, PubMed 33513143): 3.4 nM
- solubility kinetic (physchem): 104 µM (≈ 40.2 µg/mL)

SMILES: Cc1ccc(F)c(NC(=O)Nc2ccc(-c3cccc4[nH]nc(N)c34)cc2)c1 [Linifanib]
- Mouse microglial cytotoxicity at 10 μM (<70% control) ([4]; BV2, 10 μM): Y (The compound was found to be cytotoxic (cell count threshold: <70% control) when murine immortalized microglial cells were dosed at 10 μM (Y: yes))
- Human microglial cytotoxicity at 10 μM (<70% control) ([6]; HMC3, 10 μM): Y (The compound was found to be cytotoxic (cell count threshold: <70% control) when human immortalized microglial cells were dosed at 10 μM (Y: yes))
- Stimulation of mouse microglial phagocytosis at 10 μM (>150% control) ([1]; BV2, 10 μM): Y (The compound was found to stimulate phagocytosis (response threshold: >150% control) when murine immortalized microglial cells were dosed at 10 μM (Y: yes))
- Inhibition of human microglial phagocytosis at 10 μM (<70% control) ([5]; HMC3, 10 μM): Y (The compound was found to inhibit phagocytosis (response threshold: <70% control) when human immortalized microglial cells were dosed at 10 μM (Y: yes))
- Reported on-target biochemical potency [2, 7]: 5 nM
- solubility kinetic [3]: 0.6 µM (≈ 0.225 µg/mL)

SMILES: CCCCNc1ncc2c(-c3ccc(CN4CCN(C)CC4)cc3)cn([C@H]3CC[C@H](O)CC3)c2n1 [UNC2025C, reference compound]
- Mouse microglial cytotoxicity at 10 μM (<70% control) ([4]; 10 μM, BV2): Y (The compound was found to be cytotoxic (cell count threshold: <70% control) when murine immortalized microglial cells were dosed at 10 μM (Y: yes))
- 1. Cell count (% control) [4, 8]: 17.3 % control
- 2. Nuclear Area (% Control) [4, 8]: 101.1 % Control
- 3. Nuclear DNA Intensity (% control) [4, 8]: 19.1 % control
- Human microglial cytotoxicity at 10 μM (<70% control) ([6]; 10 μM, HMC3): Y (The compound was found to be cytotoxic (cell count threshold: <70% control) when human immortalized microglial cells were dosed at 10 μM (Y: yes))
- 1. Cell count (% control) [6, 9]: 38.6 % control
- 2. Nuclear Area (% Control) [6, 9]: 85.2 % Control
- 3. Nuclear DNA Intensity (% control) [6, 9]: 178.5 % control
- Inhibition of mouse microglial phagocytosis at 10 μM (<70% control) ([1]; 10 μM, BV2): Y (The compound was found to inhibit phagocytosis (response threshold: <70% control) when murine immortalized microglial cells were dosed at 10 μM (Y: yes))
- phagocytosis in mouse microglial cells (< 70% control inhibition, > 150% control stimulation) ([1]; BV2, 10 μM, pHrodo-myelin): inhibited
- 4. Phagocytosis (% control) ([1]; BV2 cells, 10 uM compound, 48 hours treatment, pHrodo-myelin final 20 hours): 0.168 % control
- Inhibition of human microglial phagocytosis at 10 μM (<70% control) ([5]; 10 μM, HMC3): Y (The compound was found to inhibit phagocytosis (response threshold: <70% control) when human immortalized microglial cells were dosed at 10 μM (Y: yes))
- phagocytosis in human microglial cells (< 70% control inhibition, > 150% control stimulation) ([5]; HMC3, 10 μM, pHrodo-myelin): inhibited
- 4. Phagocytosis (% control) ([5]; HMC3 cells, 10 uM compound, 48 hours treatment, pHrodo-myelin final 20 hours): 1.1 % control
- Reported on-target biochemical potency ([2]; target MERTK, ref PubMed 25068800, 27649555): 0.74 nM
- solubility kinetic [3]: 43.4 µM (≈ 20.7 µg/mL)

SMILES: Clc1ccccc1C(c1ccccc1)(c1ccccc1)n1ccnc1 [Clotrimazole]
- Mouse microglial cytotoxicity at 10 μM (<70% control) ([4]; BV2, 10 μM): Y (The compound was found to be cytotoxic (cell count threshold: <70% control) when murine immortalized microglial cells were dosed at 10 μM (Y: yes))
- Reported on-target biochemical potency [2, 7]: 1.8 nM
- solubility kinetic (physchem): 4.2 µM (≈ 1.45 µg/mL)

SMILES: CCN(C)C(=O)Oc1cccc([C@H](C)N(C)C)c1 [Rivastigmine]
- Stimulation of mouse microglial phagocytosis at 10 μM (>150% control) ([1]; BV2, 10 μM): Y (The compound was found to stimulate phagocytosis (response threshold: >150% control) when murine immortalized microglial cells were dosed at 10 μM (Y: yes))
- Reported on-target biochemical potency (nM): BChE ([2]; gene target BCHE, ref PubMed 23469045, 12166941): 37 nM
- solubility kinetic (physchem): 160 µM (≈ 40 µg/mL)
